Laboratory results: patent US4139629A, “Pseudomonic acid amide antibacterial compounds” (priority 1976, dated 1979)
Converted amounts (≈) assume the structure as drawn. Read-outs that look alike come from different tables or passages of the source.

Key:
Oxford Staph. = assay: MIC by serial dilution in 10% horse blood agar (Table 2); type: cell-based; conditions: 24 hours at 37° C.
Description: (§1) *Serial dilution in 10% horse blood agar. Incubated in a partial atmosphere of CO2 for 24 hours at 37° C. Inoculated with one drop (0.001ml) of an overnight cell suspension.

N.gonorrhoeae = assay: Activity against N.gonorrhoeae, MIC by serial dilution in 10% horse blood agar; type: cell-based; conditions: Neisseria gonorrhoeae, 24 h
Description: as §1

Staph. aureus 1517 = assay: Antibacterial activity against Gram-positive organisms (MIC); type: cell-based; conditions: Staphylococcus aureus
Staph. aureus Russell = assay: as above; type: cell-based; conditions: Staphylococcus aureus
B. Subtilis = assay: as above; type: cell-based; conditions: Bacillus subtilis
Strep. faecalis = assay: as above; type: cell-based; conditions: Enterococcus faecalis
Staph. aureus Oxford = assay: as above; type: cell-based; conditions: Staphylococcus aureus
β-Haemolytic Strep. CN10 = assay: as above; type: cell-based
[1] = tested on: mycoplasmas from human and veterinary sources; assay: Antimycoplasmal activity in vitro (summary); type: cell-based, mycoplasma; conditions: in words
Description: (§2) The method used to test for antimycoplasmal activity was as follows:
(§3) The minimal inhibitory concentration (MIC) of the pseudomonic acid amides was determined in Microtitre plates, by a modification of the metabolic-inhibition test (Taylor-Robinson, 1967). The compounds were serially diluted in sterile de-ionised water to give a range of concentrations from 250-0.5 μg/ml. Mycoplasma broth containing 1% (w/v) of glucose and 0.005% (w/v) of phenol red, was added at a strength to compensate for its dilution by the aqueous drug solution. Approximately 10^4 colony forming units of mycoplasma were added to each concentration of drug. Drug-free infected, non-infected and pH control wells were included on each plate. Plates were sealed with cellophane tape and incubated at 37° C. for 7 days. The MIC was the lowest concentration of compound that prevented a colour change in the mycoplasma broth caused by the metabolism of glucose by the mycoplasmas.

M. pulmonis `JB` = assay: Antimycoplasmal MIC, metabolic-inhibition test in Microtitre plates; type: cell-based; conditions: Mycoplasmopsis pulmonis, 168 h, source mouse, 37° C. for 7 days
Description: as §2, §3

M. agalactiae ATCC 25025 = assay: as above; type: cell-based; conditions: Mycoplasmopsis agalactiae, ATCC25025, 168 h; M. agalactiae ATCC 25025, source cattle; 37° C. for 7 days
Description: as §2, §3

M. suipneumoniae (Laber) = assay: as above; type: cell-based; conditions: Mesomycoplasma hyopneumoniae, 168 h, source pig, 37° C. for 7 days
Description: as §2, §3

M. gallisepticum S6 = assay: as above; type: cell-based; conditions: Mycoplasmoides gallisepticum, 168 h; M. gallisepticum S6, source chicken; 37° C. for 7 days
Description: as §2, §3

M. dispar H 225 = assay: as above; type: cell-based; conditions: 168 h; M. dispar H 225, source cattle; 37° C. for 7 days
Description: as §2, §3

M. fermentans MWKL4 = assay: as above; type: cell-based; conditions: Mycoplasmopsis fermentans, 168 h; M. fermentans MWKL4, source man; 37° C. for 7 days
Description: as §2, §3

M. pneumoniae 429 a = assay: as above; type: cell-based; conditions: Mycoplasmoides pneumoniae, 168 h, source man, 37° C. for 7 days
Description: as §2, §3

M. synoviae ATCC 25204 = assay: as above; type: cell-based; conditions: Mycoplasmopsis synoviae, ATCC25204, 168 h; M. synoviae ATCC 25204, source chicken; 37° C. for 7 days
Description: as §2, §3

[2] = Serum binding by ultrafiltration, filtrate assayed by hole-in-plate method; type: in vitro ADME
Description: The degree of binding to human serum of the compounds of Examples 1 and 2 compared with that of pseudomonic acid was determined by the following procedure:
Test samples were mixed with human serum and placed in visking tubing. Serum binding was determined by ultrafiltration, the filtrate obtained being assayed by a hole-in-plate method using Bacillus subtilis ATCC 6633 against standards prepared in 0.05M pH7.0 phosphate buffer.

[3] = strain 69, 24 hours at 37° C., read-out: M.I.C.
[4] = strain 70, 24 hours at 37° C., read-out: M.I.C.
[5] = strain 77, 24 hours at 37° C., read-out: M.I.C.
[6] = strain 82, 24 hours at 37° C., read-out: M.I.C.
[7] = strain 87, 24 hours at 37° C., read-out: M.I.C.
[8] = strain 2176, 24 hours at 37° C., read-out: M.I.C.
[9] = strain AR 229, 24 hours at 37° C., read-out: M.I.C.
[10] = strain H2057, 24 hours at 37° C., read-out: M.I.C.
[11] = strain VD 79, 24 hours at 37° C., read-out: M.I.C.
[12] = strain VDRL 67, 24 hours at 37° C., read-out: M.I.C.
[13] = strain WHO VII, 24 hours at 37° C., read-out: M.I.C.

Row | SMILES | MIC (Oxford Staph.) | MIC (Staph. aureus 1517) | MIC (Staph. aureus Russell) | MIC (B. Subtilis) | MIC (Strep. faecalis) | MIC (N.gonorrhoeae; [3]) | MIC (N.gonorrhoeae; [4]) | MIC (N.gonorrhoeae; [5]) | MIC (N.gonorrhoeae; [6]) | MIC (N.gonorrhoeae; [7]) | MIC (N.gonorrhoeae; [8]) | MIC (N.gonorrhoeae; [9]) | MIC (N.gonorrhoeae; [10]) | MIC (N.gonorrhoeae; [11]) | MIC (N.gonorrhoeae; [12]) | MIC (N.gonorrhoeae; [13]) | MIC (Staph. aureus Oxford) | antimycoplasmal activity in vitro [1] | MIC (M. pulmonis `JB`) | MIC (M. agalactiae ATCC 25025) | also measured
1 | CC1(C)S[C@@H]2[C@H](NC(=O)Cc3ccccc3)C(=O)N2[C@H]1C(=O)O [Benzyl Penicillin, benzylpenicillin, reference compound] | 0.02 µg/mL (≈ 0.0598 µM) |  |  |  |  |  |  |  |  |  |  |  |  |  |  |  |  |  |  |  | MIC (N.gonorrhoeae; strain 69, 24 hours at 37° C.): 0.1 µg/mL (≈ 0.299 µM); MIC (N.gonorrhoeae; strain 70, 24 hours at 37° C.): 0.1 µg/mL (≈ 0.299 µM); MIC (N.gonorrhoeae; strain 72, 24 hours at 37° C.): 0.2 µg/mL (≈ 0.598 µM); MIC (N.gonorrhoeae; strain 77, 24 hours at 37° C.): 0.1 µg/mL (≈ 0.299 µM); MIC (N.gonorrhoeae; strain 82, 24 hours at 37° C.): 0.5 µg/mL (≈ 1.5 µM); MIC (N.gonorrhoeae; strain 87, 24 hours at 37° C.): 0.01 µg/mL (≈ 0.0299 µM); MIC (N.gonorrhoeae; strain 2176, 24 hours at 37° C.): 0.2 µg/mL (≈ 0.598 µM); MIC (N.gonorrhoeae; strain AR 229, 24 hours at 37° C.): 1 µg/mL (≈ 2.99 µM); MIC (N.gonorrhoeae; strain H2057, 24 hours at 37° C.): 0.005 µg/mL (≈ 0.015 µM); MIC (N.gonorrhoeae; strain VD 79, 24 hours at 37° C.): 0.2 µg/mL (≈ 0.598 µM); MIC (N.gonorrhoeae; strain VDRL 67, 24 hours at 37° C.): 0.05 µg/mL (≈ 0.15 µM); MIC (N.gonorrhoeae; strain WHO VII, 24 hours at 37° C.): 0.005 µg/mL (≈ 0.015 µM)
2 | CNC(=O)CCCCCCCCOC(=O)/C=C(\C)CC1OCC(CC2OC2C(C)C(C)O)C(O)C1O (stereo not drawn) [Example 1, Pseudomonic acid N-methylamide] | 0.05 µg/mL (≈ 0.0973 µM) | 1.25 µg/mL (≈ 2.43 µM) | 1.25 µg/mL (≈ 2.43 µM) | 0.25 µg/mL (≈ 0.487 µM) | 125 µg/mL (≈ 243 µM) | 0.002 µg/mL (≈ 0.00389 µM) | 0.005 µg/mL (≈ 0.00973 µM) | 0.005 µg/mL (≈ 0.00973 µM) | 0.05 µg/mL (≈ 0.0973 µM) | 0.01 µg/mL (≈ 0.0195 µM) | 0.02 µg/mL (≈ 0.0389 µM) | 0.05 µg/mL (≈ 0.0973 µM) | 0.005 µg/mL (≈ 0.00973 µM) | 0.02 µg/mL (≈ 0.0389 µM) | 0.002 µg/mL (≈ 0.00389 µM) | 0.005 µg/mL (≈ 0.00973 µM) | 0.5 µg/mL (≈ 0.973 µM) |  |  |  | 
3 | C/C(=C\C(=O)OCCCCCCCCC(N)=O)CC1OCC(CC2OC2C(C)C(C)O)C(O)C1O (stereo not drawn) [Example 2, Pseudomonic Acid Amide] | 0.05 µg/mL (≈ 0.1 µM) | 2.5 µg/mL (≈ 5 µM) | 1 µg/mL (≈ 2 µM) | 0.25 µg/mL (≈ 0.5 µM) | 100 µg/mL (≈ 200 µM) | 0.002 µg/mL (≈ 0.004 µM) | 0.005 µg/mL (≈ 0.01 µM) | 0.02 µg/mL (≈ 0.04 µM) | 0.05 µg/mL (≈ 0.1 µM) | 0.005 µg/mL (≈ 0.01 µM) | 0.02 µg/mL (≈ 0.04 µM) | 0.05 µg/mL (≈ 0.1 µM) | 0.005 µg/mL (≈ 0.01 µM) | 0.02 µg/mL (≈ 0.04 µM) | 0.002 µg/mL (≈ 0.004 µM) | 0.002 µg/mL (≈ 0.004 µM) | 0.5 µg/mL (≈ 1 µM) | good antimycoplasmal activity | < 0.5 µg/mL | < 0.5 µg/mL | MIC (β-Haemolytic Strep. CN10): 0.1 µg/mL (≈ 0.2 µM); MIC (M. suipneumoniae (Laber)): < 0.5 µg/mL; MIC (M. gallisepticum S6): < 0.5 µg/mL; MIC (M. dispar H 225): < 0.5 µg/mL; MIC (M. fermentans MWKL4): < 0.5 µg/mL; MIC (M. pneumoniae 429 a): 250 µg/mL (≈ 500 µM); MIC (M. synoviae ATCC 25204): < 0.5 µg/mL; MIC (N.gonorrhoeae; strain 72, 24 hours at 37° C., read-out: M.I.C.): 0.01 µg/mL (≈ 0.02 µM)
4 | C/C(=C\C(=O)OCCCCCCCCC(=O)N(C)C)CC1OCC(CC2OC2C(C)C(C)O)C(O)C1O (stereo not drawn) [Example 3, Pseudomonic acid N,N-dimethylamide] |  |  |  |  |  |  |  |  |  |  |  |  |  |  |  |  |  | good antimycoplasmal activity | < 0.5 µg/mL | < 0.5 µg/mL | MIC (M. suipneumoniae (Laber)): 3.9 µg/mL (≈ 7.39 µM); MIC (M. gallisepticum S6): < 0.5 µg/mL; MIC (M. dispar H 225): < 0.5 µg/mL; MIC (M. fermentans MWKL4): < 0.5 µg/mL; MIC (M. pneumoniae 429 a): 250 µg/mL (≈ 474 µM); MIC (M. synoviae ATCC 25204): < 0.5 µg/mL
5 | C/C(=C\C(=O)OCCCCCCCCC(=O)O)C[C@@H]1OC[C@H](C[C@@H]2O[C@H]2[C@@H](C)[C@H](C)O)[C@@H](O)[C@H]1O [Pseudomonic acid] |  |  |  |  |  |  |  |  |  |  |  |  |  |  |  |  |  |  |  |  | % unbound in human serum [2]: 6.8%; fraction unbound ([2]; human, serum): 0.066
